This passage reports melting point results from a melting point compilation (Tetko et al.; mined from patent text by program, amines drawn as free bases though some values may be those of a salt).

A value given as a limit tells only on which side of the number the result lay.

Regarding `CCCCCC(O)C=Cn1c(=O)n(CCN2CCN(c3ccccc3OC)CC2)c(=O)c2ccccc21` (stereo not given), the melting point lay within 118 to 119 °C. With `Cc1cc(C)c(C2C(=O)C(Cc3ccc(Cl)cc3)N(C)C2=O)c(C)c1` (stereo not given) the figure was greater than 230 °C; with `COC(=O)C[C@H](Cc1ccccc1)NC(=O)OCC(C)C`, 50 to 52 °C; with `COC(=O)C(c1ccccc1)C(c1ccc(OC)cc1)n1cncn1` (stereo not given), 159 to 161 °C.

As to `Cn1c(=O)c2ccccc2n(C)c1=S`, the melting point was determined as 184 °C. With `OC1CCCC(c2ccccc2)O1` (stereo not given) the figure was 64.5 to 71 °C; with `CC(C)(C)CNc1nc(Nc2cccc(NS(C)(=O)=O)c2)nc2[nH]cnc12`, 270 to 273 °C.

As to `CC(C)(C)c1cc(-c2nn(CC3COC(=O)O3)c3ncccc23)cc(C(C)(C)C)c1O` (stereo not given), the melting point lay within 140 to 141 °C. As for `CC(C)(C)NS(=O)(=O)c1cnc(Cl)s1`, the figure is 75 °C; as for `O=c1[nH]ncc2[nH]c(-c3ccc(OC(F)F)c(OC4CC4)c3)c(Cc3ccccc3F)c12`, 202 to 204 °C. As for `CCCc1c(OCCCSc2ccc(CC(=O)O)cc2Cl)ccc2c(-c3ccccc3)coc12`, the figure is 143 °C.

In turn, `CCc1nc2c(N)nc3ccccc3c2n1CCCSC` showed a melting point of 210 to 212 °C. As for `CC(OCCc1ccc([N+](=O)[O-])cc1)OC1C(O)C(CO)OC1n1ccc(=O)[nH]c1=O` (stereo not given), the figure is 162 °C. Molecule `CCCCS(=O)(=O)Nc1ccc(Oc2cccc3c(C)ccnc23)cc1` gave a melting point of 208 to 209 °C. As for `O=C1C=CC(O)(C(F)(F)F)C=C1`, the figure is 84 to 86 °C; as for `O=c1[nH]c2cc(Cl)c([N+](=O)[O-])c(Cl)c2[nH]c1=O`, 320 to 325 °C; as for `CN1CCC(Oc2cccc(Cn3cnc4cc(-c5ccc(Cl)cc5)sc4c3=O)n2)CC1`, 202 to 203 °C. Regarding `CC(=O)OC1=CCC2C3CCC4CCC(OC(C)=O)CC4(C)C3CCC12C` (stereo not given), the melting point was in the range of 133 to 134 °C.

`N#Cc1c[nH]c2ccccc2c1=O` returned a melting point of 290 to 300 °C. As for `O=C1N(c2ccc(Cl)cc2)C(Cl)(Cl)C2CCCCC12Cl` (stereo not given), the figure is 120 to 124 °C; as for `COC(=O)c1nc(N)ccc1O`, 170 to 173 °C. With `[N-]=[N+]=NS(=O)(=O)c1ccc(C(=O)Cl)cc1` the figure was 68 °C; with `CCC1=Nc2ccccc2CC(c2cccnc2)N1C` (stereo not given), 72 to 75 °C; with `N#Cc1cnn2c(C(F)(F)F)cc(-c3ccc(Cl)c(Cl)c3)nc12`, 206 °C. With `Cc1nc(-c2ccc(C(F)(F)F)cc2)oc1COc1ccc(Cc2nn[nH]n2)cc1` the figure was 208 °C; with `CCS(=O)(=O)c1cccc(-c2nc(=O)c3ccccc3s2)n1`, 202 to 203 °C.

As to `O=C(C=CC=Cc1ccccc1)C=Cc1ccc([N+](=O)[O-])cc1`, the melting point fell in the range of 168 to 170 °C. `Cc1ccc(S(=O)(=O)N2CCCC(CCl)C2)cc1` (stereo not given) gave a melting point of 100 to 102 °C. As for `COC(=O)C(=CNC1CC1)C(=O)C=Cc1ccc2c(c1)OCO2`, the figure is 158 to 160 °C; as for `CNc1cc(F)c(C=O)cc1F`, 133 to 138 °C; as for `CC(C)c1ccc(C(=O)C2CCNCC2)cc1`, 55 to 57 °C. As for `CC(CO)(CO)C(=O)OCc1ccccc1`, the figure is 71.6 to 72.8 °C; as for `COc1ccc(C2=NNC(=O)[C@H]3CC=CC[C@@H]23)cc1OC1CCCC1` (relative stereo), 166 to 168 °C; as for `COc1ccc(C)cc1NC(=O)Nc1ccc(N2CCN(C(=O)Oc3c(C)cccc3Cl)CC2)cc1`, 146 to 148 °C. As for `OC1(C2CCNCC2)CC(c2ccc(F)cc2)c2ccc(F)cc21` (stereo not given), the figure is 198 °C. `CON=C(C#N)c1ccccc1COc1ccc(Cl)cc1` yielded a melting point of 69 to 71 °C.

Consider `N#CCNC(=O)c1nn(C2CCCCO2)cc1NC(=O)c1ccccn1` (stereo not given), for which the melting point was 213 to 214 °C. With `Cc1oc(-c2ccccc2)nc1COc1cc(CO)on1` the figure was 99 to 100 °C; with `COP(=O)(OC)C(c1ccc(F)cc1)(c1ccc(F)cc1)c1ccc(Cl)cc1`, 136 to 137 °C. With `COc1cc(-c2cc3c(Cl)ccnc3[nH]2)cc(OC)c1OC` the figure was 188 to 190 °C.

Take `Cn1c(C(F)(F)F)ccc(-c2c(F)cc(Cl)c3oc(C(=O)O)cc23)c1=O`: the melting point fell in the range of 233 to 235 °C.

Consider `Cc1cccc(-n2c(CF)nc3ccc([N+](=O)[O-])cc3c2=O)c1C`, for which the melting point was in the range of 178 to 180 °C. As for `Cc1ccc(-c2c(Cl)ncn2-c2ccc(S(C)(=O)=O)cc2)cc1`, the figure is 182 °C; as for `Nc1c(CCO)cc(Cl)cc1C(O)c1ccccc1` (stereo not given), 130 to 132 °C; as for `COc1ccc(N2CCCn3c2nc2c(Cl)ccc(C(OC)C(F)(F)F)c23)c(C)n1` (stereo not given), 144 to 146 °C. With `CCCCNC(=O)NS(=O)(=O)c1sccc1C` the figure was 144 to 146 °C; with `CCOC(=O)c1ccc(C(=O)O)s1`, greater than 300 °C; with `CN(CCO)c1nccc(Oc2ccc(NC(=O)c3cc(F)cc(N4CCOCC4)c3)c3ccccc23)n1`, 100 to 102 °C.

Molecule `O=Cc1ccc2cc(O)ccc2c1` returned a melting point of 154 to 156 °C. `CC1Nc2ccc(-c3csc(C#N)c3)cc2C2(CCCCC2)O1` (stereo not given) displayed a melting point of 111 to 112 °C.

Molecule `Cc1nnc(-c2ccc3occ(-c4ccc(C(N)=O)cc4)c3c2)o1` registered a melting point of 250 to 251 °C. With `O=[N+]([O-])C(=Cc1ccco1)C1=NCCN1Cc1ccc(Cl)nc1` the figure was 157 to 162 °C. `CCOc1ccc(C(=O)NCc2ccc3c(c2)C(=O)N(C2(C)CCC(=O)NC2=O)C3=O)cn1` (stereo not given) returned a melting point of 174 to 176 °C.

`Nc1ccc2c(=O)n(Cc3ccccc3)c(=O)n(-c3ccccc3)c2n1` came in with a melting point of 261 to 262 °C.

The molecule `Cc1ccccc1CN1CCN(C)CC1C1=NCCN1` (stereo not given) had a melting point of 156 to 158 °C.

On to `O=C(SCCC(=O)N1CCC[C@H]1C(=O)O)c1ccccc1`, for which the melting point is 101 to 102 °C.

As for `Cc1c(SCCCSc2ccc3ncc([N+](=O)[O-])n3n2)ccnc1CO`, the melting point lay within 127 to 129 °C. As for `CC(=O)Oc1cc(C)c(C)cc1C1(OC(C)=O)C(=O)c2ccccc2C1=O`, the figure is 206 to 207 °C.

`CCOC(=O)Nc1ccc(CN2OCC(C)(C)C2=O)c(Cl)c1` registered a melting point of 162 to 164 °C. The molecule `COc1ccnc(CCc2ccnc(N)c2N)c1` had a melting point of 89 to 91 °C.

`CCOC(=O)c1cn(C2CN(C(c3ccccc3)c3ccccc3)C2)c2cc(F)c(F)cc2c1=O`: the melting point is 196 to 201 °C. In turn, `OCCCOc1ccc(Cl)c(Cl)c1` came in with a melting point of 40 to 43 °C. With `Cc1ccc(C(C)(C)C)cc1P(=O)(O)c1cc(C(C)(C)C)ccc1C` the figure was 182 to 183 °C; with `CC1(C)Oc2cc(Cl)c(F)cc2[C@@H](Br)[C@@H]1O` (relative stereo), 97 to 99 °C; with `COc1ccc(Cl)cc1-c1c(N)c(=O)[nH]c2cc(C(F)(F)F)c(Cl)cc12`, 252 to 253 °C. As for `CCOc1ccc2nc3cc(OC)c(=O)c(Cl)c-3sc2c1`, the figure is 236 to 239 °C; as for `CCN(CC)CCCCNc1ncc2c(n1)N(CC)C(=O)N(c1cc(OC)cc(OC)c1)C2`, 83 to 85 °C. With `COc1ccc(Cn2c(=O)c3ccc4ccccc4c3c3c4ccccc4ccc32)cc1` the figure was 229 °C. `N=C(N)c1ccc2cc(OC(=O)CCCCCN)ccc2c1` returned a melting point of 122 to 123 °C. On to `O=C(O)CCNC(=O)C(=Cc1ccc(-c2ccccc2)cc1)CS`, for which the melting point worked out at 125 °C. As for `COc1cc(C=C(C=O)C(C=O)=Cc2ccc(O)c(OC)c2)ccc1O`, the figure is 177 to 178 °C. As for `O=C1CCCC(Sc2ccccc2)C(c2ccccc2)O1` (stereo not given), the figure is 166 °C.

`CCOC(=O)c1cn(Cc2ccccn2)nc1S(=O)(=O)NC(=O)Nc1nc(OC)cc(OC)n1` showed a melting point of 95 to 96 °C. With `COC(=O)NS(=O)(=O)c1cccc([N+](=O)[O-])c1` the figure was 121 to 123 °C; with `OCCNCCNc1nnc(NCCNCCO)c2cc3ccccc3cc12`, 129 to 131 °C. As for `Cc1cc(=O)c2[nH]c3ccccc3c2s1`, the figure is 295 to 296 °C; as for `NNc1c(F)cc(Cl)c2nc(Cl)sc12`, 162 to 180 °C; as for `COc1ccnc(CS(=O)c2nc3cc4c(cc3[nH]2)OC(F)(F)O4)c1` (stereo not given), 184 to 185 °C.

In turn, `COc1c(F)cc(F)c(OC)c1-c1ccc(C[C@H](NC(=O)c2c(Cl)cccc2Cl)C(=O)O)cc1` displayed a melting point of 201 to 202 °C.

For `CC(C)CNc1nccc(Oc2ccc(NC(=O)c3cc(F)cc(N4CCOCC4)c3)c3ccccc23)n1`, the melting point was in the range of 96 to 97 °C. With `C[Si](C)(C)c1ccc2cc3c(cc2c1)C(=O)c1ccccc1C3=O` the figure was 168 to 170 °C. As for `COc1ccccc1NS(=O)(=O)c1ccc([N+](=O)[O-])cc1`, the figure is 96 to 98 °C; as for `COC(=O)C(=O)c1ccc(OCCOc2ccc3cccnc3c2)cc1`, 92 to 94 °C.

Consider `COCCCn1nnnc1-c1cc(-c2cccc(C)c2)c(O)cc1O`, for which the melting point was in the range of 137 to 140 °C. As for `COc1ccccc1N1CCc2c(Cl)nc3c(OC)cccc3c21`, the figure is 99 to 101 °C. With `CC(C)Oc1ccc(CCCOc2nn(Cc3ccccc3)cc2CC(=O)O)c(Oc2ncc(C(F)(F)F)cc2Cl)c1` the figure was 115 to 116 °C. As for `CCCCCCCCCCCCc1nnn(C(C(=O)Nc2c(OC)cc(OC)cc2OC)c2ccccc2)n1` (stereo not given), the figure is 141 to 145 °C; as for `CC(C)[C@H](C[C@H](O)[C@H](C)NC(=O)OC(C)(C)C)C(=O)NCc1cccnc1`, 147 to 149 °C. In the case of `N#CCN1CCC(N2CCN(CCCN3CCCCC3)C2=C(C#N)C#N)CC1`, the melting point lay in the range of 135 to 136 °C.

In the case of `CCCCC1(CC)COP(=O)(Cc2ccc([N+](=O)[O-])cc2)OC1` (stereo not given), the melting point is 111 to 112 °C.
